Values quoted from earlier work as cited in patent publication US20120046351A1, “Medicinal cannabis added in food” (priority 2010, published 2012).

Experiments:
[1] = system: people who use cannabis; details: compared with the no cannabinoid and the TCH+CBD groups
[2] = 180 degrees C.

CCCCCc1cc(O)c2c(c1)OC(C)(C)[C@@H]1CCC(C)=C[C@@H]21 [Δ^9-THC, Tetrahydrocannabinol]
positive schizophrenia-like symptoms [1]: higher levels of positive schizophrenia-like symptoms
degradation of Δ^9-THC into cannabinol and dihydrocannabinol [2]: A significant percentage of Δ^9-THC being degraded
